From the NIST ThermoML archive (doi:10.1016/j.tca.2015.06.017)

Assay: xn = mol fraction of the nth substance listed
Details: Liquid, Vibrating tube method

CC(C)CCl [1-chloro-2-methylpropane] + CCCCCCC
mass density [kg/m3]
Details	283.15 K	293.15 K
100 kPa, x2 = 0.0531	874.07	862.97
100 kPa, x2 = 0.1023	861	850.09
100 kPa, x2 = 0.2009	836.3	825.74
100 kPa, x2 = 0.3009	813.26	803.04
100 kPa, x2 = 0.3981	792.55	782.63
100 kPa, x2 = 0.4986	772.68	763.05
100 kPa, x2 = 0.5998	754.11	744.76
100 kPa, x2 = 0.7038	736.38	727.31
100 kPa, x2 = 0.7993	721.25	712.4
100 kPa, x2 = 0.8995	706.4	697.78
100 kPa, x2 = 0.9507	699.19	690.68
2000 kPa, x2 = 0.0531	876.04	865
2000 kPa, x2 = 0.1023	862.99	852.14
2000 kPa, x2 = 0.2009	838.37	827.88
2000 kPa, x2 = 0.3009	815.32	805.15
2000 kPa, x2 = 0.3981	794.55	784.68
2000 kPa, x2 = 0.4986	774.64	765.08
2000 kPa, x2 = 0.5998	756.04	746.74
2000 kPa, x2 = 0.7038	738.29	729.29
2000 kPa, x2 = 0.7993	723.14	714.35
2000 kPa, x2 = 0.8995	708.31	699.74
2000 kPa, x2 = 0.9507	701.15	692.69
5000 kPa, x2 = 0.0531	879.03	868.28
5000 kPa, x2 = 0.1023	865.96	855.4
5000 kPa, x2 = 0.2009	841.29	831.08
5000 kPa, x2 = 0.3009	818.18	808.31
5000 kPa, x2 = 0.3981	797.37	787.79
5000 kPa, x2 = 0.4986	777.41	768.11
5000 kPa, x2 = 0.5998	758.77	749.74
5000 kPa, x2 = 0.7038	741	732.21
5000 kPa, x2 = 0.7993	725.78	717.25
5000 kPa, x2 = 0.8995	710.91	702.62
5000 kPa, x2 = 0.9507	703.73	695.55
7000 kPa, x2 = 0.0531	880.97	870.39
7000 kPa, x2 = 0.1023	867.88	857.47
7000 kPa, x2 = 0.2009	843.19	833.12
7000 kPa, x2 = 0.3009	820.06	810.3
7000 kPa, x2 = 0.3981	799.24	789.75
7000 kPa, x2 = 0.4986	779.24	770.05
7000 kPa, x2 = 0.5998	760.58	751.63
7000 kPa, x2 = 0.7038	742.77	734.07
7000 kPa, x2 = 0.7993	727.56	719.06
7000 kPa, x2 = 0.8995	712.67	704.42
7000 kPa, x2 = 0.9507	705.48	697.32
10000 kPa, x2 = 0.0531	883.84	873.43
10000 kPa, x2 = 0.1023	870.72	860.49
10000 kPa, x2 = 0.2009	845.97	836.1
10000 kPa, x2 = 0.3009	822.78	813.24
10000 kPa, x2 = 0.3981	801.92	792.65
10000 kPa, x2 = 0.4986	781.87	772.89
10000 kPa, x2 = 0.5998	763.16	754.46
10000 kPa, x2 = 0.7038	745.31	736.87
10000 kPa, x2 = 0.7993	730.05	721.81
10000 kPa, x2 = 0.8995	715.13	707.11
10000 kPa, x2 = 0.9507	707.91	700
20000 kPa, x2 = 0.0531	892.78	882.96
20000 kPa, x2 = 0.1023	879.6	869.95
20000 kPa, x2 = 0.2009	854.73	845.39
20000 kPa, x2 = 0.3009	831.42	822.38
20000 kPa, x2 = 0.3981	810.43	801.64
20000 kPa, x2 = 0.4986	790.3	–
20000 kPa, x2 = 0.5998	771.47	–
20000 kPa, x2 = 0.7038	753.52	–
20000 kPa, x2 = 0.7993	738.16	–
20000 kPa, x2 = 0.8995	723.13	–
20000 kPa, x2 = 0.9507	715.85	–
30000 kPa, x2 = 0.0531	900.97	–
30000 kPa, x2 = 0.1023	887.68	–
30000 kPa, x2 = 0.2009	862.6	–
30000 kPa, x2 = 0.3009	839.17	–
30000 kPa, x2 = 0.3981	818.12	–
30000 kPa, x2 = 0.4986	797.85	–
30000 kPa, x2 = 0.5998	778.93	–
30000 kPa, x2 = 0.7038	760.8	–
30000 kPa, x2 = 0.7993	745.44	–
30000 kPa, x2 = 0.8995	730.29	–
30000 kPa, x2 = 0.9507	722.95	–
40000 kPa, x2 = 0.0531	908.57	–
40000 kPa, x2 = 0.1023	895.22	–
40000 kPa, x2 = 0.2009	870.06	–
40000 kPa, x2 = 0.3009	846.56	–
40000 kPa, x2 = 0.3981	825.29	–
40000 kPa, x2 = 0.4986	804.92	–
40000 kPa, x2 = 0.5998	785.84	–
40000 kPa, x2 = 0.7038	767.67	–
40000 kPa, x2 = 0.7993	752.19	–
40000 kPa, x2 = 0.8995	736.93	–
40000 kPa, x2 = 0.9507	729.53	–
50000 kPa, x2 = 0.0531	915.66	–
50000 kPa, x2 = 0.1023	902.32	–
50000 kPa, x2 = 0.2009	876.98	–
50000 kPa, x2 = 0.3009	853.42	–
50000 kPa, x2 = 0.3981	832.08	–
50000 kPa, x2 = 0.4986	811.56	–
50000 kPa, x2 = 0.5998	792.36	–
50000 kPa, x2 = 0.7038	774.06	–
50000 kPa, x2 = 0.7993	758.41	–
50000 kPa, x2 = 0.8995	743.05	–
50000 kPa, x2 = 0.9507	735.59	–
60000 kPa, x2 = 0.0531	922.27	–
60000 kPa, x2 = 0.1023	908.86	–
60000 kPa, x2 = 0.2009	883.47	–
60000 kPa, x2 = 0.3009	859.78	–
60000 kPa, x2 = 0.3981	838.33	–
60000 kPa, x2 = 0.4986	817.73	–
60000 kPa, x2 = 0.5998	798.43	–
60000 kPa, x2 = 0.7038	780.03	–
60000 kPa, x2 = 0.7993	764.33	–
60000 kPa, x2 = 0.8995	748.87	–
60000 kPa, x2 = 0.9507	741.35	–
65000 kPa, x2 = 0.0531	925.46	–
65000 kPa, x2 = 0.1023	912	–
65000 kPa, x2 = 0.2009	886.55	–
65000 kPa, x2 = 0.3009	862.78	–
65000 kPa, x2 = 0.3981	841.29	–
65000 kPa, x2 = 0.4986	820.65	–
65000 kPa, x2 = 0.5998	801.22	–
65000 kPa, x2 = 0.7038	782.82	–
65000 kPa, x2 = 0.7993	767.1	–
65000 kPa, x2 = 0.8995	751.59	–
65000 kPa, x2 = 0.9507	744.04	–
